From US9493466B2, “Treatment of cancer with TOR kinase inhibitors” (Signal Pharmaceuticals, LLC, priority 2011, dated 2016) come the findings set out here.

Test [1] relates to CAG. The test is described as follows: Cell proliferation and viability assay for MM lines. The conditions noted are these: 5 days, 7AAD FACS. It counts as cell-based. The method, then: (§1) Cell Proliferation and Viability Assay for MM Lines. Prior to use, cells were washed and maintained in medium for 5 days. Cells were seeded out at a density of 0.3×10^6 cells/mL in a 12-well plate and treated with Compound 1 or Compound 2 for 5 days. 7AAD detection fluorescence-activated cell sorting (FACS) flow cytometry was used in the analysis.

Test [2] deals with DF15. The description is as above. It is filed as cell-based. The conditions noted are these: DF15, 5 days, 7AAD FACS. The method, then: as §1
Test [3] has as its system H929. The test is described as above. The conditions noted are these: H929, 5 days, 7AAD FACS. It is filed as cell-based. The method, then:
as §1

Test [4] has as its system KMS34. Described as above. It counts as cell-based. The conditions noted are these: KMS34, 5 days, 7AAD FACS. The method, then:
as §1

The subject of test [5] is LP-1. Described as above. It is filed as cell-based. The conditions noted are these: LP-1, 5 days, 7AAD FACS. The method, then: as §1
Test [6] concerns MM1.S. The test is described as above. It is filed as cell-based. The conditions noted are these: 5 days, 7AAD FACS. The method, then: as §1
In test [7] the test system is OPM2. Described as above. It counts as cell-based. The conditions noted are these: OPM2, 5 days, 7AAD FACS. The method, then:
as §1

Test [8] relates to RPMI. Described as above. It counts as cell-based. The conditions noted are these: 5 days, 7AAD FACS. The method, then:
as §1

In test [9] the test system is U266. The test is described as above. The conditions noted are these: U266, 5 days, 7AAD FACS. It counts as cell-based. The method, then:
as §1

Test [10] relates to NHL cell lines. The test is described as follows: Apoptosis assay for NHL lines (panel statement). The conditions noted are these: multiple NHL cell lines in vitro; FIG. 2. It counts as cell-based. The method, then:
Apoptosis Assay for NHL Lines. Prior to testing, cells were grown and expanded in culture flasks to provide sufficient amounts of starting material. Cells were then diluted to their desired densities and added directly to compound-spotted 384-well plates. Cells were allowed to grow for 24 hours in 5% CO2 at 37° C. The apoptotic response was assessed by quantifying the activities of caspase 3 and caspase 7 (Caspase 3/7-Glo) in treated cells and control cells at the 24-hour time point. All data was normalized and represented as a value relative to the DMSO-treated cells. Results were then expressed as CalX, which is the minimum compound concentration required to double the levels of caspase 3/7 relative to those of the DMSO-treated cells during their treatment period.

The test system of test [11] is U87MG-Luc cells. The test is described as follows: U87MG intracranial glioblastoma model. It is filed as in vivo, Nude mice. The conditions noted are these: up to 6 weeks. The method, then:
U87MG Intracranial Glioblastoma Model (Compound 1). An intracranial glioblastoma study was conducted with U87MG cells transfected with luciferase (U87-MG-Luc). Nude mice were inoculated intracranially with U87MG-Luc cells into the brain. Following inoculation of animals, the tumors were allowed to grow for 7 days. On day 7 following tumor cell inoculation, the mice were imaged using Xenogen imaging system. The mice having tumors with an average flux ranging between 6.29×10^7 and 1.59×10^8 photons/sec were pooled together and randomized into various treatment groups. Compound 1 was formulated in 0.5% CMC and 0.25% Tween 80 in water (as a suspension). The animals were orally administered vehicle (CMC-Tween) or Compound 1 once daily (QD) for up to 6 weeks. Doses of Compound 1 ranged between 2.5 and 20 mg/kg. The positive control Temozolomide (10 mg/kg, QD) was administered via intra peritoneal (IP) route. Temozolomide was formulated in 5% N-methylpyrrolidone, 45% PEG400 and 50% saline. The animals were imaged for bioluminescence once a week using Xenogen imaging system and monitored for survival. Statistical analysis was performed using a log-rank test between Compound-treated and vehicle-treated control groups.
U87MG Intracranial Glioblastoma Model (Compound 2). […] The animals were imaged for bioluminescence once a week using Xenogen imaging system and monitored for survival. […]

Setting [12] is: 120 h, read-out: IC50, Proliferation.
Setting [13] is: 120 h, read-out: IC50, Viability.
Setting [14] is: Homo sapiens, 120 h, read-out: IC50, Viability.

Read-outs that look alike come from different tables or passages of the source.

`CO[C@H]1CC[C@H](N2C(=O)CNc3ncc(-c4ccc(C(C)(C)O)nc4)nc32)CC1` [Compound 1, 7-(6-(2-hydroxypropan-2-yl)pyridin-3-yl)-1-((1r,4r)-4-methoxycyclohexyl)-3,4-dihydropyrazino-[2,3-b]pyrazin-2(1H)-one]: the IC50 in test [1] (read-out: IC50, Proliferation) was 800 nM; in [1] (read-out: IC50, Viability), 2600 nM; in test [2] (read-out: IC50, Proliferation) it was 100 nM; in test [2] (read-out: IC50, Viability), 850 nM; in test [3] (read-out: IC50, Proliferation), 190 nM; in test [3] (read-out: IC50, Viability), 730 nM. In addition, the IC50 in test [4] (read-out: IC50, Proliferation) was determined as 100 nM; in test [4] (read-out: IC50, Viability) it was 420 nM; in [5] (read-out: IC50, Proliferation) it was 220 nM; in test [6] (read-out: IC50, Proliferation), 440 nM; in test [6] (read-out: IC50, Viability), 1010 nM; in [7] (read-out: IC50, Proliferation), 330 nM. In addition, the IC50 in [7] (read-out: IC50, Viability) stood at 600 nM; in test [8] (read-out: IC50, Proliferation), 170 nM; in test [8] (read-out: IC50, Viability), 1100 nM; in test [9] (read-out: IC50, Proliferation), 560 nM. Also, the apoptosis induction entry in test [10] is reported as “induce apoptosis”. Moreover, in [11] (2.5 to 20 mg/kg QD oral, FIG. 14), the survival result is listed as “significantly prolonged the life”.
As for `CCN1C(=O)CNc2ncc(-c3ccc(-c4nc[nH]n4)nc3C)nc21` [Compound 2, 1-ethyl-7-(2-methyl-6-(1H-1,2,4-triazol-3-yl)pyridin-3-yl)-3,4-dihydropyrazino[2,3-b]pyrazin-2(1H)-one], the IC50 stood at 410 nM in [1] (setting [12]); 1500 nM in test [1] (setting [13]); 50 nM in [2] (setting [12]); 570 nM in [2] (setting [13]); 130 nM in test [3] (Homo sapiens, NCI-H929, 120 h, read-out: IC50, Proliferation); 400 nM in test [3] (Homo sapiens, NCI-H929, 120 h, read-out: IC50, Viability). Besides, the IC50 in test [4] (KMS-34, 120 h, read-out: IC50, Proliferation) was 70 nM; in test [4] (KMS-34, 120 h, read-out: IC50, Viability), 120 nM; in test [5] (Homo sapiens, 120 h, read-out: IC50, Proliferation), 160 nM; in test [5] (setting [14]), 830 nM; in test [6] (setting [14]), 850 nM; in test [7] (Homo sapiens, OPM-2, 120 h, read-out: IC50, Proliferation), 370 nM. In addition, the IC50 came to 510 nM in [7] (Homo sapiens, OPM-2, 120 h, read-out: IC50, Viability); 150 nM in [8] (setting [12]); 450 nM in test [8] (setting [13]); 320 nM in [9] (Homo sapiens, U-266, 120 h, read-out: IC50, Proliferation); 4290 nM in test [9] (Homo sapiens, U-266, 120 h, read-out: IC50, Viability). Further, the apoptosis induction result in test [10] is recorded as “induce apoptosis”. For the same compound, the survival result in [11] (0.5 to 5 mg/kg QD oral, FIG. 16) was “significantly prolonged the life”.
